From PMC5421785, “Citrullination only infrequently impacts peptide binding to HLA class II MHC” (PLoS ONE, 2017)
Like-named read-outs stand apart in the source and are kept apart here. Blank lines part the entries; values can stand above or below the molecule they belong to. Square brackets hold non-standard residues; d marks the D form. Ends that are not written are not given here. Peptide text beside a SMILES is read from it. Cit = NC(=O)NCCC[C@H](N)C(=O)O

Legend:
HLA-DRB1*01:01 = target: T1, HLA-DRB1*01:01 (Homo sapiens, UniProt P01903+P01911, A100R/D57E/F55L/F60I/F76Y/I96L/L162R/M171V/P40L/Q125E/R42F/V115G/Y59C); test: HLA class II peptide binding, inhibition of radiolabeled peptide binding to purified MHC
T1 construct: EBV transformed homozygous cell lines were used as sources of MHC molecules; endogenous in cells; host or cells: EBV transformed homozygous cell lines

HLA-DRB1*04:01 = target: T2, HLA-DRB1*04:01 (Homo sapiens, UniProt P01903+P01911, A100K/A169T/F76Y/I96L/K127E/L162R/M171V/N62H/P40V/Q125Y/R42H/S133A/S149N/S66Y/V115G/V209L/W38E); test: as above
T2 construct: EBV transformed homozygous cell lines were used as sources of MHC molecules; endogenous in cells; host or cells: EBV transformed homozygous cell lines

[1] = citrullinated 15-mer (X), purified MHC, inhibition of radiolabeled peptide binding, dash = IC50 >40,000 nM, read-out: DRB1*01:01 binding capacity, Cit peptide (IC50 nM)
[2] = citrullinated 15-mer (X), purified MHC, inhibition of radiolabeled peptide binding, dash = IC50 >40,000 nM, read-out: DRB1*04:01 binding capacity, Cit peptide (IC50 nM)
[3] = wild-type (unmodified Arg) 15-mer peptide, purified HLA-DRB1*01:01, read-out: DRB1*01:01 binding capacity, WT peptide (IC50 nM)
[4] = wild-type (unmodified Arg) 15-mer peptide, purified HLA-DRB1*04:01, read-out: DRB1*04:01 binding capacity, WT peptide (IC50 nM)
[5] = read-out: DRB1*01:01 binding capacity, WT peptide (IC50 nM)
[6] = read-out: DRB1*04:01 binding capacity, WT peptide (IC50 nM)
[7] = citrullinated 15-mer peptide (X = citrulline), purified HLA-DRB1*01:01, read-out: DRB1*01:01 binding capacity, Cit peptide (IC50 nM)
[8] = citrullinated 15-mer peptide (X = citrulline), purified HLA-DRB1*04:01, read-out: DRB1*04:01 binding capacity, Cit peptide (IC50 nM)

- IC50 (HLA-DRB1*01:01; [1]): 85 nM
- IC50 (HLA-DRB1*04:01; [2]): 109 nM
Molecule: CC(C)C[C@H](NC(=O)[C@H](CO)NC(=O)[C@H](Cc1ccc(O)cc1)NC(=O)[C@@H](NC(=O)[C@H](CCCNC(N)=O)NC(=O)[C@@H](NC(=O)[C@H](CO)NC(=O)[C@@H](NC(=O)[C@@H](NC(=O)[C@@H](NC(=O)[C@H](Cc1ccc(O)cc1)NC(=O)[C@H](CO)NC(=O)[C@H](CCCNC(=N)N)NC(=O)[C@H](CO)NC(=O)[C@@H](N)CO)C(C)C)[C@@H](C)O)[C@@H](C)O)[C@@H](C)O)[C@@H](C)O)C(=O)O [SSRSYVTTSTXTYSL] (H-SSRSYVTTST[Cit]TYSL-OH)

- IC50 (HLA-DRB1*01:01; [3]): 315 nM
- IC50 (HLA-DRB1*04:01; [4]): 7130 nM
Molecule: MIRLGAPQTLVLLTL [Collagen 1 WT]

- IC50 (HLA-DRB1*01:01; [5]): > 40000 nM
- IC50 (HLA-DRB1*04:01; [6]): > 40000 nM
Molecule: AANRNNDALRQAKQE [Vimentin 301 WT]

- IC50 (HLA-DRB1*01:01; [1]): 16 nM
- IC50 (HLA-DRB1*04:01; [2]): 1280 nM
Molecule: CC(C)C[C@H](NC(=O)[C@@H](N)CO)C(=O)N[C@@H](Cc1ccc(O)cc1)C(=O)N[C@@H](C)C(=O)N[C@@H](CO)C(=O)N[C@@H](CO)C(=O)N1CCC[C@H]1C(=O)NCC(=O)NCC(=O)N[C@H](C(=O)N[C@@H](Cc1ccc(O)cc1)C(=O)N[C@@H](C)C(=O)N[C@H](C(=O)N[C@@H](CCCNC(N)=O)C(=O)N[C@@H](CO)C(=O)O)[C@@H](C)O)C(C)C [SLYASSPGGVYATXS]

- IC50 (HLA-DRB1*01:01; [7]): > 40000 nM
- IC50 (HLA-DRB1*04:01; [8]): > 40000 nM
- DRB1*04:01 binding capacity, WT/cit ratio (HLA-DRB1*04:01; ratio of WT IC50 to Cit IC50, >1 = citrullination increases binding): 0.548
Molecule: C[C@H](NC(=O)CNC(=O)[C@H](CCCCN)NC(=O)[C@@H]1CCCN1C(=O)CNC(=O)[C@@H](N)CC(=O)O)C(=O)N[C@@H](CCCNC(=N)N)C(=O)NCC(=O)N[C@@H](CC(=O)O)C(=O)N[C@@H](CO)C(=O)NCC(=O)N1CCC[C@H]1C(=O)N1CCC[C@H]1C(=O)NCC(=O)N[C@@H](CCCNC(N)=O)C(=O)O [DGPKGARGDSGPPGX] (H-DGPKGARGDSGPPG[Cit]-OH; N-terminus and C-terminus assumed)

- IC50 (HLA-DRB1*01:01; [1]): 16300 nM
- IC50 (HLA-DRB1*04:01; [2]): > 40000 nM
Molecule: CC(C)C[C@H](NC(=O)[C@H](CO)NC(=O)[C@H](C)NC(=O)[C@H](CC(N)=O)NC(=O)[C@@H](N)CC(=O)O)C(=O)N[C@@H](C)C(=O)N[C@@H](CCCNC(N)=O)C(=O)N[C@@H](CC(C)C)C(=O)N[C@@H](CC(=O)O)C(=O)N[C@@H](CC(C)C)C(=O)N[C@@H](CCC(=O)O)C(=O)N[C@@H](CCCNC(=N)N)C(=O)N[C@@H](CCCCN)C(=O)N[C@H](C(=O)N[C@@H](CCC(=O)O)C(=O)O)C(C)C [DNASLAXLDLERKVE] (H-DNASLA[Cit]LDLERKVE-OH)

- IC50 (HLA-DRB1*01:01; [3]): 15900 nM
- IC50 (HLA-DRB1*04:01; [4]): > 40000 nM
Molecule: TNESLERQMREMEEN [Vimentin 336 WT]

- IC50 (HLA-DRB1*01:01; [5]): 408 nM
- IC50 (HLA-DRB1*04:01; [6]): 491 nM
Molecule: MSTRSVSSSSYRRMF [Vimentin 1 WT]

- IC50 (HLA-DRB1*01:01; [3]): 17000 nM
- IC50 (HLA-DRB1*04:01; [4]): > 40000 nM
Molecule: TGPKGARGAQGPPGA [Collagen 881 WT]

- IC50 (HLA-DRB1*01:01; [1]): 12500 nM
- IC50 (HLA-DRB1*04:01; [2]): > 40000 nM
Molecule: CSCC[C@H](NC(=O)[C@H](CCC(=O)O)NC(=O)[C@H](CCC(=O)O)NC(=O)[C@H](CCC(=O)O)NC(=O)[C@H](Cc1ccc(O)cc1)NC(=O)[C@H](CC(C)C)NC(=O)[C@H](CC(=O)O)NC(=O)CNC(=O)[C@@H](N)CC(C)C)C(=O)N[C@@H](CCCNC(=N)N)C(=O)N[C@@H](CCC(=O)O)C(=O)N[C@@H](CC(C)C)C(=O)N[C@@H](CCCNC(N)=O)C(=O)N[C@@H](CCCNC(=N)N)C(=O)N[C@@H](CCC(N)=O)C(=O)O [LGDLYEEEMRELXRQ]

- IC50 (HLA-DRB1*01:01; [5]): 852 nM
- IC50 (HLA-DRB1*04:01; [6]): > 40000 nM
Molecule: DIMRLREKLQEEMLQ [Vimentin 181 WT]

- IC50 (HLA-DRB1*01:01; [3]): 352 nM
- IC50 (HLA-DRB1*04:01; [4]): > 40000 nM
Molecule: GAQGLQGPRGLPGTP [Collagen 711 WT]

- IC50 (HLA-DRB1*01:01; [7]): 10500 nM
- IC50 (HLA-DRB1*04:01; [8]): > 40000 nM
Molecule: CC(C)C[C@H](NC(=O)CNC(=O)[C@@H]1CCCN1C(=O)[C@H](Cc1ccccc1)NC(=O)CNC(=O)[C@H](CCCNC(N)=O)NC(=O)[C@H](CCC(=O)O)NC(=O)CNC(=O)[C@H](CCCNC(=N)N)NC(=O)[C@H](CCC(N)=O)NC(=O)CNC(=O)[C@@H]1CCCN1)C(=O)N1CCC[C@H]1C(=O)NCC(=O)N1CCC[C@H]1C(=O)O [PGQRGEXGFPGLPGP] (H-PGQRGE[Cit]GFPGLPGP-OH)

- IC50 (HLA-DRB1*01:01; [5]): 290 nM
- IC50 (HLA-DRB1*04:01; [6]): 1050 nM
Molecule: CC(C)C[C@H](NC(=O)[C@H](CO)NC(=O)[C@H](CCCNC(=N)N)NC(=O)[C@H](CO)NC(=O)[C@@H](NC(=O)[C@H](CO)NC(=O)[C@@H]1CCCN1)[C@@H](C)O)C(=O)N[C@@H](Cc1ccc(O)cc1)C(=O)N[C@@H](C)C(=O)N[C@@H](CO)C(=O)N[C@@H](CO)C(=O)N1CCC[C@H]1C(=O)NCC(=O)NCC(=O)N[C@H](C(=O)O)C(C)C [Vimentin 46 WT]

- IC50 (HLA-DRB1*01:01; [7]): 3470 nM
- IC50 (HLA-DRB1*04:01; [8]): > 40000 nM
Molecule: CC(C)[C@H](NC(=O)[C@H](CCCNC(N)=O)NC(=O)CNC(=O)[C@H](C)NC(=O)[C@H](C)NC(=O)CNC(=O)[C@@H]1CCCN1C(=O)[C@H](Cc1ccccc1)NC(=O)CNC(=O)[C@@H](N)[C@@H](C)O)C(=O)NCC(=O)N1CCC[C@H]1C(=O)N1CCC[C@H]1C(=O)NCC(=O)N[C@@H](CO)C(=O)O [TGFPGAAGXVGPPGS] (H-TGFPGAAG[Cit]VGPPGS-OH)

- IC50 (HLA-DRB1*01:01; [5]): 1330 nM
- IC50 (HLA-DRB1*04:01; [6]): 1340 nM
Molecule: AINTEFKNTRTNEKV [Vimentin 91 WT]

- IC50 (HLA-DRB1*01:01; [1]): 816 nM
- IC50 (HLA-DRB1*04:01; [2]): 10900 nM
Molecule: CC[C@H](C)[C@H](NC(=O)[C@H](Cc1ccc(O)cc1)NC(=O)[C@H](CC(N)=O)NC(=O)[C@H](C)NC(=O)[C@H](Cc1ccccc1)NC(=O)[C@H](CCCNC(N)=O)NC(=O)[C@H](CC(=O)O)NC(=O)[C@@H](N)CC(N)=O)C(=O)N[C@@H](CC(=O)O)C(=O)N[C@@H](CCCCN)C(=O)N[C@H](C(=O)N[C@@H](CCCNC(=N)N)C(=O)N[C@@H](Cc1ccccc1)C(=O)N[C@@H](CC(C)C)C(=O)N[C@@H](CCC(=O)O)C(=O)O)C(C)C [NDXFANYIDKVRFLE] (H-ND[Cit]FANYIDKVRFLE-OH)

- IC50 (HLA-DRB1*01:01; [7]): 0.65 nM
- IC50 (HLA-DRB1*04:01; [8]): 2340 nM
Molecule: CC(C)C[C@H](NC(=O)CNC(=O)[C@@H](NC(=O)[C@H](Cc1ccccc1)NC(=O)CNC(=O)[C@H](CCCNC(N)=O)NC(=O)[C@H](Cc1c[nH]cn1)NC(=O)CN)[C@@H](C)O)C(=O)N[C@@H](CCC(N)=O)C(=O)NCC(=O)N[C@@H](CC(C)C)C(=O)N1CCC[C@H]1C(=O)NCC(=O)N1CCC[C@H]1C(=O)N1CCC[C@H]1C(=O)O [GHXGFTGLQGLPGPP] (H-GH[Cit]GFTGLQGLPGPP-OH)

- IC50 (HLA-DRB1*01:01; [7]): 578 nM
- IC50 (HLA-DRB1*04:01; [8]): > 40000 nM
Molecule: CC(C)C[C@H](NC(=O)CNC(=O)[C@H](CCC(N)=O)NC(=O)[C@H](C)NC(=O)CN)C(=O)N[C@@H](CCC(N)=O)C(=O)NCC(=O)N1CCC[C@H]1C(=O)N[C@@H](CCCNC(N)=O)C(=O)NCC(=O)N[C@@H](CC(C)C)C(=O)N1CCC[C@H]1C(=O)NCC(=O)N[C@H](C(=O)N1CCC[C@H]1C(=O)O)[C@@H](C)O [GAQGLQGPXGLPGTP] (H-GAQGLQGP[Cit]GLPGTP-OH)

- IC50 (HLA-DRB1*01:01; [3]): 44 nM
- IC50 (HLA-DRB1*04:01; [4]): 2570 nM
Molecule: GPQGARGQPGVMGFP [Collagen 591 WT]

Molecule: C[C@H](NC(=O)[C@@H]1CCCN1C(=O)CNC(=O)[C@H](CCC(N)=O)NC(=O)[C@@H]1CCCN1C(=O)CNC(=O)[C@@H]1CCCN1C(=O)[C@@H]1CCCN1)C(=O)NCC(=O)N[C@@H](CCC(=O)O)C(=O)N[C@@H](CCC(N)=O)C(=O)NCC(=O)N1CCC[C@H]1C(=O)N[C@@H](CCCNC(N)=O)C(=O)NCC(=O)O [PPGPQGPAGEQGPXG] (H-PPGPQGPAGEQGP[Cit]G-OH)
- IC50 (HLA-DRB1*01:01; citrullinated 15-mer peptide (X = citrulline), […], read-out: DRB1*01:01 binding capacity, Cit peptide (IC50 nM)): 35600 nM
- IC50 (HLA-DRB1*04:01; citrullinated 15-mer peptide (X = citrulline), […], read-out: DRB1*04:01 binding capacity, Cit peptide (IC50 nM)): > 40000 nM
